Earlier results, collected in patent publication US20180028451A1, “IMMEADIATE RELEASE ORAL TABLET” (Boehringer Ingelheim International GmbH, priority 2015, published 2018).

Conditions: physiological pH range of the gastro-intestinal tract between pH 1 to 7

CCCc1nc2c(C)cc(-c3nc4ccccc4n3C)cc2n1Cc1ccc(-c2ccccc2C(=O)O)cc1 [Telmisartan, 4′-[2-n-propyl-4-methyl-6-(1-methylbenzimidazol-2-yl)-benzimidazol-1-ylmethyl]-biphenyl-2-carboxylic acid]
solubility in aqueous systems: very poor solubility
